Laboratory results taken from patent US20070276034A1, “Compounds, compositions and methods for the treatment of synucleinopathies” (priority 2002, published 2007).
Where two headings read alike, the source gives them in different places.

What was measured:
[1] = test system: BE-M17 human neuroblastoma cells overexpressing A53T α-synuclein; experiment: Thioflavin S aggregation assay in rotenone-treated cells; format: cell-based
Description: (§1) Therefore, to test the therapeutic potential of the compounds, two cell-based assays were utilized. In both assays, rotenone is used to induce mitochondrial oxidative stress and α-synuclein aggregation. The first assay utilizes the binding of the fluorescent dye thioflavin S to structures with high β-sheet content including α-synuclein fibrils. Therefore, quantitative assessment of the extent of thioflavin S-positive staining of fixed cells is used to test the ability of the compounds to decrease the amount of α-synuclein aggregates. In the second assay, cell viability is assessed using the XTT Cytotoxicity assay, which is dependent on intact, functional mitochondria in live cells. Thus, the XTT Cytotoxicity assay is used to test the ability of the compounds to ameliorate the mitochondrial toxicity and resulting loss of viability associated with the accumulation of α-synuclein aggregates. Phrased another way, the XTT Cytotoxicity assay is used to gauge the compounds neuroprotective efficacy. These studies are presented in the following examples.
(§2) BE-M17 human neuroblastoma cells stably transfected with A53T-mutant human α-synuclein were obtained. Cell culture reagents were obtained from Gibco/Invitrogen, and cells were grown in OPTIMEM supplemented with 10% FBS, Penicillin (100 units/mil)-Streptomycin (100 μg/ml) and 500 μg/ml G418 as previously described (Ostrerova-Golts et al., J. Neurosci., 20:6048-6054, 2000).
Thioflavin S is commonly used to detect amyloid-containing structures in situ, including in brain tissue (Vallet et al., Acta Neuropathol., 83:170-178, 1992), and cultured cells (Ostrerova-Golts et al., J. Neurosci., 20:6048-6054, 2000), whereas thioflavin T is often used as an in vitro reagent to analyze the aggregation of soluble amyloid proteins into fibrils enriched in β-pleated sheet structures (LeVine III, Prot. Sci., 2:404-410, 1993). Therefore, Thioflavin S histochemistry was used on cultured cells to detect aggregates containing a high degree of […] structures that formed in response to oxidative stress-inducing agents (in this case rotenone) as previously described, with minor modifications (Ostrerova-Golts et al., J. Neurosci, 20:6048-6054, 2000). Briefly, for these studies, cells were grown on Poly-D-Lysine coated glass slide chambers at approximately 3×10^4 cells/cm^2. After 24 hours, cells were treated with 500 nM, 1 μM or 5 μM rotenone (Sigma) or vehicle (0.05% DMSO) as indicated. Immediately after rotenone (or vehicle) addition, compounds were added at the indicated concentration, or cell culture media only (no compound) in the presence of rotenone was added. Identical treatments were repeated after 48 hours. After an additional 48 hours, cells were fixed for 25 minutes in 3% paraformaldehyde. After a PBS wash, the cells were incubated with 0.015% thioflavin S in 50% ethanol for 25 minutes, washed twice for four minutes in 50% ethanol and twice for five minutes in deionized water and then mounted using an aqueous-based mountant designed to protect against photobleaching. Aggregates that bind to thioflavin S were detected with a fluorescent microscope using a High Q FITC filter set (480 to 535 nm bandwidth) and a 20× objective lens unless otherwise indicated. Between 8 and 16 representative images per condition were selected, imaged and processed by an experimenter who was blinded to treatment conditions. To assess the amount of thioflavin S-positive aggregates, the total area per field covered by thioflavin S-positive inclusions was determined. […] Spurious, non-cell associated fluorescence was manually removed. Unless indicated otherwise, data represent group means ±SEM. Statistical analyses were performed with GraphPad Prism (GraphPad Inc). Differences between means (two samples) were assessed by the […]. Differences among multiple means were assessed by one-factor ANOVA followed by Tukey's multiple comparison test.

[2] = test system: A53T α-synuclein-expressing BE-M17 cells; experiment: XTT Cytotoxicity assay - protection against rotenone-induced cytotoxicity; format: cell-based
Description: as §1, §2
Research has shown that the accumulation of α-synuclein fibrils in Lewy bodies contributes mechanistically to the degradation of neurons in Parkinson's disease and related disorders (Polymeropoulos et al., Science 276:2045-2047, 1997; Kruger et al., Nature Genet. 18:106-108, 1998). Here, the XTT Cytotoxicity assay (hereafter referred to as the XTT assay) was used to measure the ability of test compounds to protect against rotenone-induced cytotoxicity (neuroprotective ability). The assay is based on the principle that conversion of the yellow tetrazolium salt XTT to form an orange formazan dye (that absorbs light around 490 nm) occurs only in metabolically active, viable cells. Therefore, light absorbance at 490 nm is proportional to cell viability. For this assay, cells were plated in 96 well tissue culture dishes at 10^4 cells per well. After 24 hours, cells were treated with 500 nM or 2 μM rotenone, or vehicle (0.05% DMSO) as indicated. Immediately after rotenone addition, compounds were added at the indicated concentration. […] Untreated cells received cell culture media only (no compound, with or without rotenone). After 40-44 hours of treatment, conditioned media was removed and replaced with 100 μl fresh media and 50 μl XTT labeling reaction mixture according to the manufacturer's recommendations. Four to five hours later, the absorbance at 490 nm was measured and corrected for absorbance at the 700 nm reference wavelength. […] Percent inhibition of cell death was calculated as the proportion of the rotenone-induced absorbance (viability) decrease that was eliminated by test compound treatment.

Aβ 1-42 fibrils = biological target: T1, Aβ 1-42 fibrils (Homo sapiens, UniProt P05067); experiment: Congo red binding assay with Aβ 1-42 fibrils; format: biochemical; details: for % Inhibition Aβ (result ± S.D.), Congo red binding: 3-day incubation
T1 construct: purchased Bachem Inc
Experimental: In the Congo red binding assay the ability of a test compound to alter amyloid (in this case, Aβ) binding to Congo red is quantified. In this assay, Aβ 1-42 and test compounds were incubated for 3 days and then vacuum filtered through a 0.2 μm filter. The amount of Aβ 1-42 retained in the filter was then quantitated following staining of the filter with Congo red. After appropriate washing of the filter, any lowering of the Congo red color on the filter in the presence of the test compound (compared to the Congo red staining of the amyloid protein in the absence of the test compound) was indicative of the test compound's ability to diminish/alter the amount of aggregated and congophilic Aβ.
In one study, the ability of Aβ fibrils to bind Congo red in the absence or presence of increasing amounts of the compounds or EDTA (at Aβ:test compound weight ratios of 1:1, 1:0.1, 1:0.01 or 1:0.001) was determined.

[3] = 1 μM rotenone, 1 μg/ml compound
[4] = 50 μg/ml compound, at both rotenone doses (500 nM or 2 μM)
[5] = Aβ:test compound wt/wt ratio 1:0.001
[6] = Aβ:test compound wt/wt ratio 1:0.1
[7] = Aβ:test compound wt/wt ratio 1:1
[8] = 5 μg/ml compound, rotenone 500 nM or 2 μM
[9] = 5 μM rotenone, 1 μg/ml compound

T1 sequence (P05067 672-713): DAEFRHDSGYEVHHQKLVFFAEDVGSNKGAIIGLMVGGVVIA

| Structure (SMILES) | reduction of rotenone-induced thioflavin S-positive aggregates [1, 3] | inhibition of rotenone-induced loss of viability [2, 4] | % Inhibition Aβ (result ± S.D.), Congo red binding (Aβ 1-42 fibrils; [5]) | % Inhibition Aβ (result ± S.D.), Congo red binding (Aβ 1-42 fibrils; [6]) | % Inhibition Aβ (result ± S.D.), Congo red binding (Aβ 1-42 fibrils; [7]) | inhibition of rotenone-induced loss of viability [2, 8] | reduction of rotenone-induced thioflavin S-positive aggregates [1, 9] | also measured |
| --- | --- | --- | --- | --- | --- | --- | --- | --- |
| O=C(Nc1ccc(O)c(O)c1)c1ccc(O)c(O)c1 [Compound 51, 3,4-dihydroxybenzoic acid 3,4-dihydroxyanilide] | 91% | 25-30% | – | – | – | – | – | reduction of rotenone-induced thioflavin S-positive aggregates ([1]; 1 μM rotenone, 500 ng/ml compound): 87%; optimal therapeutic dose in XTT assay ([2]; 500 nM rotenone): ~25 µg/mL; inhibition at 10 µg/mL ([2]; Homo sapiens, 10 μg/ml compound, 500 nM rotenone, read-out: inhibition of rotenone-induced toxicity): 45%; inhibition at 25 µg/mL ([2]; Homo sapiens, 25 μg/ml compound, 500 nM rotenone, read-out: inhibition of rotenone-induced toxicity): 55% |
| O=C(O)CN(CCN(CC(=O)O)CC(=O)O)CC(=O)O [EDTA, reference compound] | – | – | 7.91 ± 3.61% | 3.6 ± 8.68% | 1.1 ± 7.02% | – | – | % Inhibition Aβ (result ± S.D.), Congo red binding (Aβ 1-42 fibrils; Aβ:test compound wt/wt ratio 1:0.01): 0.0 ± 3.91%; inhibition of Aβ 1-42 fibril binding to Congo red (in words) (Aβ 1-42 fibrils; all concentrations tested (ratios 1:1 to 1:0.001), 3 days): no significant inhibition |
| Oc1ccc(Cc2ccc(O)c(O)c2)cc1O [Compound 3, 3,4,3′,4′-tetrahydroxydiphenylmethane] | 90% | – | 1.7 ± 4.21% | 35.7 ± 3.29% | 91.6±5.19% | – | – | reduction of rotenone-induced thioflavin S-positive aggregates ([1]; 1 μM rotenone, 5 μg/ml compound): 90% |
| O=C(Nc1ccc(O)c(O)c1)C(=O)Nc1ccc(O)c(O)c1 [Compound 63, oxalic acid bis(3,4-dihydroxyanilide)] | – | – | – | – | – | 10-13% | – | inhibition at 50 µg/mL ([2]; Homo sapiens, 50 μg/ml compound, 500 nM rotenone, read-out: inhibition of rotenone-induced toxicity): ~55%; inhibition at 50 µg/mL ([2]; Homo sapiens, 50 μg/ml compound, 2 μM rotenone, read-out: inhibition of rotenone-induced toxicity): ~35% |
| O=C(NCc1ccc(O)c(O)c1)C(=Cc1ccc(O)c(O)c1)NC(=O)c1ccc(O)c(O)c1 [Compound 21, α-(3,4-dihydroxybenzamido)-3,4-dihydroxycinnamic acid 3,4-dihydroxybenzyl amide] | – | 30-40% | – | – | – | – | 84% | – |
| O=C(Nc1ccc(O)c(O)c1)Nc1ccc(O)c(O)c1 [Compound 76, 1,3-bis(3,4-dihydroxyphenyl)urea] | – | – | – | – | – | approximately 18% | 80% | reduction of rotenone-induced thioflavin S-positive aggregates ([1]; 5 μM rotenone, 500 ng/ml compound): 73%; reduction of rotenone-induced thioflavin S-positive aggregates ([1]; 5 μM rotenone, 5 μg/ml compound): 91% |
